Molecules are shown by their SMILES.

As usually defined, the IC50 is the concentration at which inhibition is half-maximal.

PI3Kγ, sequence (P48736 whole entry): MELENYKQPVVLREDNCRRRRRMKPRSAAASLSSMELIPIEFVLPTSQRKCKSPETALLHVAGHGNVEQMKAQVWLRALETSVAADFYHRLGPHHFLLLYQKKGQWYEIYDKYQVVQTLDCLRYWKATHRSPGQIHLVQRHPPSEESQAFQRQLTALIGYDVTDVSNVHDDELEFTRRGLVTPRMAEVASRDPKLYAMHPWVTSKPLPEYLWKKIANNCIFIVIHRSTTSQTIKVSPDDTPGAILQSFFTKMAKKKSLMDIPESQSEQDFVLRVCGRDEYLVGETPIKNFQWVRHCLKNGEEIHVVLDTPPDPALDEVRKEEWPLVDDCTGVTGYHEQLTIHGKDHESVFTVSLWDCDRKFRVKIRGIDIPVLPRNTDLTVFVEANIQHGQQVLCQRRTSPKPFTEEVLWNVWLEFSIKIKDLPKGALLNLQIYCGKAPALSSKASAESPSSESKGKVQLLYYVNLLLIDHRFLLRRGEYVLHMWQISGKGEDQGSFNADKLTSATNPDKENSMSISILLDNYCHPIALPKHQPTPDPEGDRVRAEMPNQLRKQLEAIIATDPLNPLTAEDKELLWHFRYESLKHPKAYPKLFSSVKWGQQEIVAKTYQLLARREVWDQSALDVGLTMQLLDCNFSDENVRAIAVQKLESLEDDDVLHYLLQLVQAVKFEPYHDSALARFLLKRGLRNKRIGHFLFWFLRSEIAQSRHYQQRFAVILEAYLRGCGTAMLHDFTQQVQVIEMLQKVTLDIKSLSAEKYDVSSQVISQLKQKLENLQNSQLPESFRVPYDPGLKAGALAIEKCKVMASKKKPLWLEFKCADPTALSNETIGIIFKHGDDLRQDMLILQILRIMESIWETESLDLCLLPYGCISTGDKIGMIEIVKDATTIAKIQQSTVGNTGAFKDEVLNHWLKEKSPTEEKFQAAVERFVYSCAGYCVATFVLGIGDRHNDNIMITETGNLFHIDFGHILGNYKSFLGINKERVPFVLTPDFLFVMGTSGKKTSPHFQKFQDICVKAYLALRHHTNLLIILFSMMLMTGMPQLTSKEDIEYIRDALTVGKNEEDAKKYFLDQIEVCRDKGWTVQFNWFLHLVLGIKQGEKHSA

The first assay addresses PI3Kγ (Homo sapiens (Human), UniProt P48736). The assay can be described thus: High Throughput PI3K Lipid Kinase Assay (scintillation proximity assay). Format: biochemical. The following applies: Human recombinant GST-PI3Kγ, SPA. From the text:
a) High Throughput PI3K Lipid Kinase Assay (Binding Assay): The efficacy of compounds of the invention in inhibiting the PI3K induced-lipid phosphorylation may be tested in the following binding assay. The assay combines the scintillation proximity assay technology (SPA, Amersham) with the capacity of neomycin (a polycationic antibiotic) to bind phospholipids with high affinity and specificity. The Scintillation Proximity Assay is based on the properties of weakly emitting isotopes (such as ^3H, ^125I, ^33P). Coating SPA beads with neomycin allows the detection of phosphorylated lipid substrates after incubation with recombinant PI3K and radioactive ATP in the same well, by capturing the radioactive phospholipids to the SPA beads through their specific binding to neomycin. […] After incubation at room temperature for 180 minutes, with gentle agitation, the reaction is stopped by addition of 60 μl of a solution containing 100 μg of neomycin-coated PVT SPA beads in PBS containing ATP 10 mM and EDTA 5 mM. The assay is further incubated at room temperature for 60 minutes with gentle agitation to allow binding of phospholipids to neomycin-SPA beads. After precipitation of the neomycin-coated PVT SPA beads for 5 minutes at 1500×g, radioactive PtdIns(3)P is quantified by scintillation counting in a Wallac MicroBetaTM plate counter. The values indicated in Table I below refer to the IC50 (nM) with respect to PI3Kγ, i.e. the amount necessary to achieve 50% inhibition of said target. Said values show a considerable inhibitory potency of thiazole compounds with regard to PI3Kγ.
On the technique in general: In a scintillation proximity assay essentially only radioactivity close to the scintillant gives light.
Consider `CC(=O)Nc1nc(C)c(-c2csc(N3CCOCC3)n2)s1` [Example 16, N-(4-methyl-2-morpholin-4-yl-4,5-bi-1,3-thiazol-2-yl)acetamide], for which the IC50 was 844 nM.

With `COCCNc1nc(-c2sc(NC(C)=O)nc2C)cs1` [Example 33, N-{2-[(2-methoxyethyl)amino]-4-methyl-4,5-bi-1,3-thiazol-2-yl}acetamide], the IC50 worked out at 355 nM.

As to `CC(=O)Nc1nc(C)c(-c2csc(NCCc3nnc(O)o3)n2)s1` [Example 56, 5-(2-{[2′-(acetylamino)-4′-methyl-4,5′-bi-1,3-thiazol-2-yl]amino}ethyl)-1,3,4-oxadiazol-2-olate], the IC50 is 377 nM.

`CC(=O)Nc1nc(C)c(-c2csc(Nc3cccnc3)n2)s1` [Example 7, N-[4-methyl-2-(Pyridin-3-ylamino)-4,5-bi-1,3-thiazol-2-yl]acetamid]: the IC50 was 94 nM.

In the case of `CC(=O)Nc1nc(C)c(-c2csc(NCCN3CCOCC3)n2)s1` [Example 31, N-{4-methyl-2-[(2-morpholin-4-ylethyl)amino]-4,5-bi-1,3-thiazol-2-yl}acetamide], the IC50 worked out at 871 nM.

Regarding `CC(=O)Nc1nc(C)c(-c2csc(NC(C)(C)C)n2)s1` [Example 22, N-[2-(tert-butylamino)-4-methyl-4,5-bi-1,3-thiazol-2-yl]acetamide], the IC50 came to 314 nM.

Consider `CCOC(CCNc1nc(-c2sc(NC(C)=O)nc2C)cs1)OCC` [Example 45, N-{2-[(3,3-diethoxypropyl)amino]-4′-methyl-4,5′-bi-1,3-thiazol-2′-yl}acetamide], for which the IC50 worked out at 612 nM.

Turning to `CC(=O)NCCNc1nc(-c2sc(NC(C)=O)nc2C)cs1` [Example 77, N-(2-{[2-(acetylamino)ethyl]amino}-4′-methyl-4,5′-bi-1,3-thiazol-2′-yl)acetamide], the 50% inhibitory concentration (IC50) is 189 nM.

Turning to `CC(=O)Nc1nc(C)c(-c2csc(N3CCCCC3)n2)s1` [Example 5, N-(4-methyl-2-piperidin-1-yl-4,5-bi-1,3-thiazol-2-yl)acetamide], the IC50 was determined as 630 nM.

Turning to `C=CCNc1nc(-c2sc(NC(C)=O)nc2C)cs1` [Example 6, N-[2-(allylamino)-4-methyl-4,5-bi-1,3-thiazol-2-yl]acetamide], the IC50 amounted to 202 nM.

In the case of `CC(=O)Nc1nc(C)c(-c2csc(NCC(O)c3ccccc3)n2)s1` (centres unmarked) [Example 37, N-{2-[(2-hydroxy-2-phenylethyl)amino]-4-methyl-4,5-bi-1,3-thiazol-2-yl}acetamide], the IC50 was determined as 70 nM.

As to `CC(=O)Nc1nc(C)c(-c2csc(N)n2)s1` [Example 14, N-(2-amino-4-methyl-4,5-bi-1,3-thiazol-2-yl)acetamide], the IC50 came out at 575 nM.

Consider `CC(=O)Nc1nc(C)c(-c2csc(Nc3cccnc3F)n2)s1` [Example 43, N-{2-[(2-fluoropyridin-3-yl)amino]-4′-methyl-4,5′-bi-1,3-thiazol-2′-yl}acetamide], for which the IC50 came to 38 nM.

Regarding `CC(=O)Nc1nc(C)c(-c2csc(Nc3cccc(CCC(=O)O)c3)n2)s1` [Example 136, 3-(3-{[2′-(acetylamino)-4′-methyl-4,5′-bi-1,3-thiazol-2-yl]amino}phenyl) propanoic acid], the IC50 came out at 64 nM.

Another assay has as its system Akt/PKB phosphorylation in Raw 264-7 macrophages. As to the kind of experiment: Cell based ELISA to monitor PI3K inhibition (Akt/PKB phosphorylation after Complement 5a stimulation). The following applies: Mus musculus, RAW264.7, read-out: Cell Assay (P-Akt, Elisa) IC50 [μM]. Here is the method:
b) Cell Based ELISA to Monitor PI3K Inhibition:
The efficacy of compounds of the invention in inhibiting the PI3K induced AKt/PKB phosphorylation may be tested in the following cell based assay.
Measurement of Akt/PKB phosphorylation in macrophages after stimulation with Complement 5a: Raw 264: Raw 264-7 macrophages (cultured in DMEM-F12 medium containing 10% Fetal Calf serum and antibiotics) are plated at 20'000 cells/well in a 96 MTP 24 h before cell stimulation. Previous to the stimulation with 50 nM of Complement 5a during 5 minutes, Cells are serum starved for 2 h, and pretreated with inhibitors for 20 minutes. After stimulation cells are fixed in 4% formaldehyde for 20 minutes and washed 3 times in PBS containing 1% Triton X-100 (PBS/Triton). Endogenous peroxidase is blocked by a 20 minutes incubation in 0.6% H2O2 and 0.1% Sodium Azide in PBS/Triton and washed 3 times in PBS/Triton. Cells are then blocked by 60 minutes incubation with 10% fetal calf serum in PBS/Triton. Next, phosphorylated AKt/PKB is detected by an overnight incubation at 4° C. with first antibody (anti phospho Serine 473 Akt IHC, Cell Signaling) diluted 800-fold in PBS/Triton, containing 5% bovine serum albumin (BSA). After 3 washes in PBS/Triton, cells are incubated for 60 minutes with a peroxidase conjugated goat-anti-rabbit antibody (1/400 dilution in PBS/Triton, containing 5% BSA), washed 3 times in PBS/Triton, and 2 times in PBS and further incubated in 100 μl of substrate reagent solution (R&D) for 20 minutes. The reaction is stopped by addition of 50 μl of 1 M SO4H2 and absorbance is read at 450 nm.
The values indicated in Table II below reflect the percentage of inhibition of AKT phoshorylation as compared to basal level. Said values show a clear effect of the thiazole compounds on the activation of AKT phosphorylation in macrophages.
In general terms: ELISA stands for enzyme-linked immunosorbent assay.
As to `CC(=O)Nc1nc(C)c(-c2csc(Nc3cccc(-c4nnc(O)o4)c3)n2)s1` [Example 53, N-(2-{[3-(5-hydroxy-1,3,4-oxadiazol-2-yl)phenyl]amino}-4′-methyl-4,5′-bi-1,3-thiazol-2′-yl)acetamide], the IC50 turned out to be 1.51 µM.

Staying with this assay, now noted: Mus musculus, RAW264.7; Raw 264-7 macrophages, 50 nM Complement 5a; read-out: Cell Assay (P-Akt, Elisa) IC50.
Take `CC(=O)Nc1nc(C)c(-c2csc(NCCC(N)=O)n2)s1` [Example 84]: the IC50 worked out at 1.84 µM.

With `CC(=O)Nc1nc(C)c(-c2csc(Nc3cccc(C(=O)O)c3)n2)s1` [Example 1], the concentration for half-maximal inhibition (IC50) came to 3.18 µM.

Turning to `CC(=O)Nc1nc(C)c(-c2csc(Nc3cccnc3)n2)s1` [Example 7, N-[4-methyl-2-(Pyridin-3-ylamino)-4,5-bi-1,3-thiazol-2-yl]acetamid], the IC50 worked out at 1.64 µM.

`CC(=O)Nc1nc(C)c(-c2csc(Nc3ccc(Cl)nc3)n2)s1` [Example 24, N-{2-[(6-chloropyridin-3-yl)amino]-4-methyl-4,5-bi-1,3-thiazol-2-yl}acetamide]: the IC50 stood at 0.66 µM.

The test system of the next assay is Class I PI3-kinases.
Assay: not given
The following applies: Fruman et al., 1998; read-out: IC50 against each of the various Class I PI3-kinases; cited from earlier work.
Take `COC[C@H]1OC(=O)c2coc3c2[C@@]1(C)C1=C(C3=O)[C@@H]2CCC(=O)[C@@]2(C)C[C@H]1OC(C)=O` [wortmannin]: the 50% inhibitory concentration (IC50) is 1 to 10 nM.

The record behind these values is patent publication US8802861B2, “Thiazole derivatives and use thereof” (Merck Serono SA, priority 2004, dated 2014).
